Measurements from patent publication US10052320B2, “Substituted quinoxalines as FGFR kinase inhibitors” (ASTEX THERAPEUTICS LIMITED, priority 2011, dated 2018).

Experiments:
[1] = tested on: Ba/F3-Flt3-transfected cells in the presence of 10 ng/ml murine IL3; test: Ba/F3-Flt3 (plus IL3) cellular proliferation counterscreen, Alamar Blue; type: cell-based; settings: Mus musculus; plus 10 ng/ml murine IL3; read-out: BAF3-FLT3 (PLUS IL3) 384 well pIC50 (converted)
Experimental: (§1) Ba/F3-Flt3 (Minus IL3 or Plus IL3) (Cellular Proliferation Assay)
(§2) In a 384 well plate, 100 nl of compound dilution in DMSO was sprayed before adding 50 μl cell culture medium (phenol red free RPMI-1640, 10% FBS, 2 mM L-Glutamine and 50 μg/ml Gentamycin) containing 20000 cells per well of Ba/F3-Flt3-transfected cells. Cells were put in an incubator at 37° C. and 5% CO2. After 24 hours, 10 μl of Alamar Blue solution (0.5 mM K3Fe(CN)6, 0.5 mM KaFe(CN)6, 0.15 mM Resazurin and 100 mM Phosphate Buffer) was added to the wells, incubated for 4 hours at 37° C. and 5% CO2 before RFU's (Relative Fluorescence Units) (ex. 540 nm., em. 590 nm.) were measured in a flurorescence plate reader.
As a counterscreen the same experiment was performed in the presence of 10 ng/ml murine IL3.
as §2, with “a 96” for “a 384”, “plate, 180” for “plate, 100 nl of compound dilution in DMSO was sprayed before adding 50”, “containing 10000” for “containing 20000”, “Ba/F3-Flt3-transfected cells were pipette and 20 μl of compound dilution in DMSO was added.” for “Ba/F3-Flt3-transfected cells.”, “hours, 40” for “hours, 10”

[2] = target: T1, Ba/F3-Flt3-transfected cells (Homo sapiens, UniProt P36888, cells depend on it, form not given); test: Ba/F3-Flt3 (minus IL3) cellular proliferation assay, Alamar Blue; type: cell-based; settings: minus IL3
T1 sequence (P36888 1-993): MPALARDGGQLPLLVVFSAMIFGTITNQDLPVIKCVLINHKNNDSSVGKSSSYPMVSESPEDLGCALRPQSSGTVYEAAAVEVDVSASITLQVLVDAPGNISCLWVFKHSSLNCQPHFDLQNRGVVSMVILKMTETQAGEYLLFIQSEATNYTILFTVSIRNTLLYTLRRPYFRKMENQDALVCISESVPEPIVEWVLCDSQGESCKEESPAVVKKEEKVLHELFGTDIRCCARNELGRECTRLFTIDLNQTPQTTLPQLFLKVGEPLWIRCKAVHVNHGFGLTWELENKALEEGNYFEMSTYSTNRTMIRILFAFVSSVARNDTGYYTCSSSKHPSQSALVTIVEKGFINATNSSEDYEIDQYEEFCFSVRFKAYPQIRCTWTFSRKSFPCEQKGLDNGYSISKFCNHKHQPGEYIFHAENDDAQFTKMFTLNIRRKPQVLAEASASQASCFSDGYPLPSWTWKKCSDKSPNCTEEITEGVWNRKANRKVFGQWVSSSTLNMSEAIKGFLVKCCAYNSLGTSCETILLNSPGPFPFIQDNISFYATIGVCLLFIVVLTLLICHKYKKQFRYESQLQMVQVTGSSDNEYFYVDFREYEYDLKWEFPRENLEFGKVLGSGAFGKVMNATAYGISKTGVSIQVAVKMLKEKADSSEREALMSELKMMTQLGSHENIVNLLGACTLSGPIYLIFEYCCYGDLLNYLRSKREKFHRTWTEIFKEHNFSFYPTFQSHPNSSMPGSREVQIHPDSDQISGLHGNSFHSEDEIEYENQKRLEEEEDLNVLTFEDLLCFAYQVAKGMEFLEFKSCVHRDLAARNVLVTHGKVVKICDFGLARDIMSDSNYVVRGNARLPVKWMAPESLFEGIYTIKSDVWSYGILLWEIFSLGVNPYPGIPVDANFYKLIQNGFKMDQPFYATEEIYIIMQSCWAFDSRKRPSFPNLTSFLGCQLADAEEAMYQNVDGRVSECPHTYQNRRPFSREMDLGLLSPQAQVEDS
Experimental: as §1
Cells were put in an incubator at 37° C. and 5% CO2. After 24 hours, 10 μl of Alamar Blue solution (0.5 mM K3Fe(CN)6, 0.5 mM KaFe(CN)6, 0.15 mM Resazurin and 100 mM Phosphate Buffer) was added to the wells, incubated for 4 hours at 37° C. and 5% CO2 before RFU's (Relative Fluorescence Units) (ex. 540 nm., em. 590 nm.) were measured in a flurorescence plate reader. […]
as §2, with “a 96” for “a 384”, “plate, 180” for “plate, 100 nl of compound dilution in DMSO was sprayed before adding 50”, “containing 10000” for “containing 20000”, “Ba/F3-Flt3-transfected cells were pipette and 20 μl of compound dilution in DMSO was added.” for “Ba/F3-Flt3-transfected cells.”, “hours, 40” for “hours, 10”

KDR (h) (VEGFR2) = KDR (h) (VEGFR2) (Homo sapiens, UniProt P35968); test: KDR (VEGFR2) (enzymatic assay), TR-FRET; type: biochemical
Experimental: KDR (VEGFR2) (Enzymatic Assay)
In a final reaction volume of 30 μL, KDR (h) (150 ng/ml) was incubated with 50 mM HEPES pH 7.5, 6 mM MnCl2, 1 mM DTT, 0.1 mM Na3VO4, 0.01% Triton-X-100, 500 nM Btn-Flt3 and 3 μM ATP in the presence of compound (1% DMSO final). After incubation for 120 minutes at room temperature the reaction was stopped with 2.27 nM EU-anti P-Tyr, 7 mM EDTA, 31.25 nM SA-XL-665 and 0.02% BSA which was present for 60 minutes at room temperature. Time-Resolved Fluorescence Resonance Energy Transfer (TR-FRET) signal (ex340 nm. Em 620 nm, em 655 nm) was measured afterwards and results are expressed in RFU (Relative Fluorescence Units).

Chain of KDR (h) (VEGFR2) (P35968 20-1356): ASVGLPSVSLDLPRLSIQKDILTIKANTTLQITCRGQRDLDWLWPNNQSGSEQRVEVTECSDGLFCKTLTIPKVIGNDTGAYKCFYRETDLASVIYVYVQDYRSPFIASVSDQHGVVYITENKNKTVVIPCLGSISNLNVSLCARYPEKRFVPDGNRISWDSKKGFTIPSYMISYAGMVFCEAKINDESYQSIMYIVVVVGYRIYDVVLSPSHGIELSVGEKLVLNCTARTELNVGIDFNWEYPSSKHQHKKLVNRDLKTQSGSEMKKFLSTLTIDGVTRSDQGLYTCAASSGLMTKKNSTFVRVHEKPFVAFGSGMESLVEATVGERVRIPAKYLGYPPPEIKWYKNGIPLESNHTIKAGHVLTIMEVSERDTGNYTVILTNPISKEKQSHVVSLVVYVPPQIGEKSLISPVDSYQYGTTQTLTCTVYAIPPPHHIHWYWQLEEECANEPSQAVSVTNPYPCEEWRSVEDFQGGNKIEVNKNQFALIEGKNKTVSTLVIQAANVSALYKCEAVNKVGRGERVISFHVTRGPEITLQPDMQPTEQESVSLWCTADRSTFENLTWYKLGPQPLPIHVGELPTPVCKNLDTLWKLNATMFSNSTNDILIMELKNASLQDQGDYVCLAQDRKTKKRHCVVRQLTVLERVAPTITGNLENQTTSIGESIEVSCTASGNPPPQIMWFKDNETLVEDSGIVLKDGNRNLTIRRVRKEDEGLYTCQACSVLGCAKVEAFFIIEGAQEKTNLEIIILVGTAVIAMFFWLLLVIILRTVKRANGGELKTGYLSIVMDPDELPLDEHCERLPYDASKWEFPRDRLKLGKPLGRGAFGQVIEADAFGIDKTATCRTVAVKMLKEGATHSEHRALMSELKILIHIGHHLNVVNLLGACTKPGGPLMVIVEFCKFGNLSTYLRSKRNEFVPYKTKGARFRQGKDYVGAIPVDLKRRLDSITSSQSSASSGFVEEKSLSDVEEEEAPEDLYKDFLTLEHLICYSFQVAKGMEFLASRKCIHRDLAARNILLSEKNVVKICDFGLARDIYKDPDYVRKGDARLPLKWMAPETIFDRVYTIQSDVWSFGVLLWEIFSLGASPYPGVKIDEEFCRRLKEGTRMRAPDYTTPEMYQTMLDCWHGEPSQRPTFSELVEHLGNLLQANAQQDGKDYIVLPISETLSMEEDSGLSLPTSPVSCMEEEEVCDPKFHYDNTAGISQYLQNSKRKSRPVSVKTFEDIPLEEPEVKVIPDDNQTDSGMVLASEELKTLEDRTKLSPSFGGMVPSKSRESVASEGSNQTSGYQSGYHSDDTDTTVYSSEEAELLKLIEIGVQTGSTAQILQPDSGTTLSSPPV

Row | Structure (SMILES) | BAF3-FLT3 (MIN IL3) 384 well pIC50 [2] | IC50 (KDR (h) (VEGFR2)) | IC50 [1]
1 | COc1cc(OC)cc(N(CCCNCC(F)(F)F)c2ccc3ncc(-c4ccnc(F)c4)nc3c2)c1 [Compound 144] | <5 | > 1000 nM | > 10000 nM
2 | COc1cc(OC)cc(N(CCCNCC(F)(F)F)c2ccc3ncc(-c4ccnc(Cl)c4)nc3c2)c1 [Compound 145] | <5 | > 1000 nM | > 10000 nM
3 | COc1cc(OC)cc(N(CCNC(C)C)c2ccc3ncc(-c4ccnc(C(=O)NCCCN)c4)nc3c2)c1 [Compound 146] | <5 | 269 nM | > 10000 nM
4 | COc1cc(OC)cc(N(CCCNCC(F)(F)F)c2ccc3ncc(-c4ccnc(C(=O)NCCCN)c4)nc3c2)c1 [Compound 148] | <5 | > 1000 nM | > 10000 nM
5 | COc1cc(OC)cc(N(CCCNCC(F)(F)F)c2ccc3ncc(-c4ccnc(C(=O)NCCCCCO)c4)nc3c2)c1 [Compound 150] | <5 | 708 nM | > 10000 nM
6 | COc1cc(OC)cc(N(CCCNCC(F)(F)F)c2ccc3ncc(C(=O)NCCN4CCOCC4)nc3c2)c1 [Compound 158] | <5 | > 1000 nM | > 10000 nM
7 | COc1cc(OC)cc(N(CCNC(C)C)c2ccc3ncc(C(=O)NCCCN4CCN(C)CC4)nc3c2)c1 [Compound 159] | <5 | > 1000 nM | > 10000 nM
8 | COc1cc(OC)cc(N(CCNC(C)C)c2ccc3ncc(C(=O)NCCN4CCOCC4)nc3c2)c1 [Compound 160] | <5 | > 1000 nM | > 10000 nM
9 | COc1cc(OC)cc(N(CCNC(C)C)c2ccc3ncc(NCC4CCNCC4)nc3c2)c1 [Compound 161] | <5 | 617 nM | > 10000 nM

More lines, main results first:

Row | BAF3-FLT3 (MIN IL3) 384 well pIC50 [2] | IC50 (KDR (h) (VEGFR2)) | Structure (SMILES) | IC50 [1]
10 | <5 | 692 nM | COc1cc(OC)cc(N(CCO)c2ccc3ncc(-c4ccnc(C(=O)NCCCCCO)c4)nc3c2)c1 [Compound 139] | > 10000 nM
11 | ~5.25 | 52.5 nM | COc1cc(OC)cc(N(CCCNC(C)C)c2ccc3ncc(-c4ccnc(N)c4)nc3c2)c1 [Compound 143] | 6610 nM
12 | <5 | > 1000 nM | COc1cc(OC)cc(N(CCCO)c2ccc3ncc(-c4cccnc4F)nc3c2)c1 [Compound 149] | > 10000 nM
13 | <5 | > 1000 nM | COc1cc(OC)cc(N(CCO)c2ccc3ncc(-c4ccccc4CCO)nc3c2)c1 [Compound 151] | > 10000 nM
14 | <5 | 407 nM | COc1cc(OC)cc(N(CCO)c2ccc3ncc(-c4ccc(N5CCN(C(=O)OC(C)(C)C)CC5)cc4)nc3c2)c1 [Compound 156] | > 10000 nM
15 | 5.32 | 355 nM | COc1cc(OC)cc(N(CCO)c2ccc3ncc(-c4ccc(N5CCN(C)CC5)nc4)nc3c2)c1 [Compound 163] | > 10000 nM
